Experimental data from patent publication US20170319562A1, “Compositions and Methods for Extended Therapy with Aminopyridines” (Acorda Therapeutics, Inc., priority 2009, published 2017).
“And” between values parts separate entries of the source, which are not always exact repeats. Equal values may be shown once.

Legend:
[1] = system: patients with multiple sclerosis; test: MS-F204 Phase 3 double-blind placebo-controlled study
Description: Each of two Phase 3 studies (MS-F203 and MS-F204) was a parallel group, randomized, double-blind study comparing 4-aminopyridine-SR 10 mg b.i.d. with placebo. […] The 12-item Multiple Sclerosis Walking Scale and the Subject Global Impression and Clinician Global Impression were used to validate the clinical meaningfulness of the Timed-Walk response criterion. Secondary efficacy variables included walking speed, Lower Extremity Manual Muscle Test (LEMMT) score and the Ashworth spasticity score, the latter two averaged across eight and six lower extremity muscle groups, respectively. Duration of double-blind treatment on which efficacy was based was 14 weeks in the first study and 8 weeks in the second study. A two-week single blind placebo run-in period preceded the double-blind period.
In the MS-F204 study, the primary efficacy variable was also Responder status, based on consistent improvement in walking speed on the T25FW. A Timed-Walk Responder was defined as a patient with a faster walking speed for at least three of the first four double-blind visits as compared to the maximum walking speed for any of the pre-treatment visits and the post-treatment visit.
The secondary efficacy variable was average change from baseline in LEMMT score during the double-blind period, comparing 4-aminopyridine-treated Timed-Walk Responders and Non-Responders separately against the placebo-treated group. Other measures, the MSWS-12, SGI, CGI and Ashworth score, were included only for the purposes of a pooled analysis and comparison with the results of the other two trials.
This study in this Example was a 39 center, double-blind trial in patients with definite multiple sclerosis of any course type. Participants were randomized to 9 weeks of treatment with 4-aminopyridine (10 mg twice daily; n=120) or placebo (n=119). Response was defined as consistent improvement on the Timed 25-Foot Walk, with percentage of Timed Walk Responders (TWR) in each treatment group as the primary outcome. The last on-treatment visit provided data from 8-12 h post-dose, to examine maintenance of effect.
Study Design. This was a randomized, double-blind, placebo-controlled trial, as depicted in FIG. 14. Patients underwent screening without receiving any study medication and eligible patients returned one week later (Visit 0, see FIG. 14). Patients then entered a two-week, single-blind, placebo run-in period; Visit 1 occurred at the end of the first week of placebo run-in and Visit 2 at the end of the second week. Patients were instructed to take one blinded tablet (supplied in appropriate quantities at each clinic visit) every 12 hours during the treatment phase.
At Visit 2, patients were randomized equally to one of two treatment groups, sustained release 4-aminopyridine (4-aminopyridine-SR, 10 mg twice daily) or placebo, using a predetermined, computer-generated randomization schedule, blocked and stratified by treatment-site and pre-numbered treatment kits. Independent statistical, packaging and distribution contractors were used to maintain the blind for all other personnel.
Following randomization, patients returned every two weeks for evaluation at Visits 3-6. The patients were then instructed to return in one week for Visit 7 and to arrange the timing of their last dose of study medication such that the clinic visit would allow for assessments to be made between 10 and 12 hours after this last dose was taken. Following Visit 7, patients began a two-week period of no treatment, returning for follow-up assessments at Visit 8.

[2] = system: patients with multiple sclerosis; test: MS-F203EXT open-label extension study; type: in vivo, human; conditions: for patients classified as Extension Timed Walk Responders: cut-off Jul. 31, 2008
Description: Data were presented by study pair (parent and extension).
In the MS-F203EXT study, which allowed patients to enroll directly from the parent study MS-F203, open-label 4-aminopyridine-SR 10 mg b.i.d. was dispensed at visit 0 (a separate screening visit was only required if the screening visit could not be combined with the Final visit for MS-F203); visit 1 was scheduled to occur two weeks after visit 0, visit 2 at 12 weeks after visit 1, visit 3 at 12 weeks after visit 2. The planned interval between subsequent visits was 26 weeks. Therefore, at visit 4, a patient should have been on 4-aminopyridine-SR treatment for approximately one year.
This Example considers efficacy data collected from the three ongoing, open label extension studies (MS-F202EXT, MS-F203EXT, MS-F204EXT). The primary focus was the Timed 25-Foot Walk, assessed in a manner consistent with its evaluation in the parent double-blind studies. This included the determination of response to treatment using a criterion equivalent to the Timed Walk Response criterion used in the parent studies. […] The clinical meaningfulness of this criterion was evaluated in terms of the Subject and Clinician Global Impression scores recorded during the extension studies.
In the extension studies, a “Timed Walk Extension Responder” was defined as a patient who achieved a faster walking speed on the T25FW for the majority of on-drug treatment visits during the first year of the study (Visits 1-4 for MS-F203EXT and MS-F204EXT) than the maximum walking speed previously measured for the patient during any off-drug visits in either the parent study or in the extension study.

Question: `Nc1ccncc1` [4-aminopyridine] was tested. Which “Mantel-Haenszel Odds Ratio for Timed Walk Response vs placebo” value ([1]; 10 mg b.i.d.) did it give?
Answer: 8.14

Question: What about the “Timed-Walk Responder rate” value ([1]; 10 mg b.i.d.) of the same compound?
Answer: 42.9%

Question: And the “plasma concentration below which there is a marked reduction in walking speed improvement” value ([1]; FIG. 27)?
Answer: below 13 ng/mL

Question: What about the “plasma concentration below which there is a reduction in walking speed improvement” value ([1]; FIG. 27) of the same compound?
Answer: below 15 ng/mL

Question: And the “average change from baseline in walking speed (Visits 3-6)” value ([1]; Timed Walk Non-Responders)?
Answer: 0.12 ft/sec

Question: What about the “average improvement in walking speed from baseline, double-blind efficacy period (Visits 3-6)” value ([1]; Timed Walk Non-responders, 10 mg b.i.d.) of the same compound?
Answer: 6.0%

Question: What about the “average change from baseline in walking speed (Visits 3-6)” value ([1]; Timed Walk Responders) of the same compound?
Answer: 0.51 ft/sec

Question: What about the “improvement from baseline walking speed at Visit 7, first evaluation (last on-treatment visit)” value ([1]; Timed Walk Responders) of the same compound?
Answer: 25.7%

Question: What about the “average improvement in walking speed from baseline, double-blind efficacy period (Visits 3-6)” value ([1]; Timed Walk Responders, 10 mg b.i.d.) of the same compound?
Answer: 24.7% and 25%

Question: And the “mean improvement in walking speed at Visit 7” value (“mean improvement” below) ([1]; Timed Walk Responders, 9-10 h post dose)?
Answer: 25.5%

Question: And the “mean improvement” value ([1]; Timed Walk Responders, 10-11 h post dose)?
Answer: 25.3%

Question: What about the “mean improvement” value ([1]; Timed Walk Responders, 11-12 h post dose) of the same compound?
Answer: 20.1% and 20%

Question: What about the “reduction of average plasma concentration at the first assessment at Visit 7” value ([1]; human, in vivo, 10 mg b.i.d.) of the same compound?
Answer: approximately 25%

Question: And the “decline in walking speed from the original double-blind baseline” value ([2]; Extension Timed Walk Non-Responders, end of the second year)?
Answer: approximately 8%

Question: What about the “improvement in walking speed over the original baseline” value ([2]; Extension Timed Walk Responders, Visit 6) of the same compound?
Answer: more than 20%

Question: What about the “mean walking speed faster than double-blind baseline at each extension visit” value ([2]; Extension Timed Walk Responders, first year) of the same compound?
Answer: more than 30%

Question: And the “patients classified as Extension Timed Walk Responders” value (“patients classified” below) ([2]; all patients)?
Answer: 24.9%

Question: What about the “Extension Timed Walk Response rate within year” value ([2]; double-blind Non-Responders, year 1) of the same compound?
Answer: 19.7%

Question: What about the “Extension Timed Walk Response rate within year” value ([2]; double-blind Non-Responders, year 2) of the same compound?
Answer: 17.5%

Question: And the “Extension Timed Walk Response rate within year” value ([2]; double-blind Responders, year 1)?
Answer: 42.9%

Question: What about the “Extension Timed Walk Response rate within year” value ([2]; double-blind Responders, year 2) of the same compound?
Answer: 36.1%

Question: And the “patients classified” value ([2]; parent-study treated Timed Walk Non-Responders)?
Answer: 19.7%

Question: And the “patients classified” value ([2]; parent-study treated Timed Walk Responders)?
Answer: 41.4%

Question: What about the “Extension Timed Walk Response rate within year” value ([2]; placebo treated in parent study, year 1) of the same compound?
Answer: 16.2%

Question: And the “Extension Timed Walk Response rate within year” value ([2]; placebo treated in parent study, year 2)?
Answer: 20.8%

Question: And the “patients classified” value ([2]; placebo-treated in parent study)?
Answer: 17.7%
